Key:
[1] = tested on: PC-3 xenograft bearing mice; set-up: AUC Kidneys: unit not given beside the values; details: mouse, in vivo
[2] = biological target: T1, GRPR (Homo sapiens, UniProt P30550); test: Receptor affinity and kinetics by LigandTracer on living PC-3 cells; format: binding
T1 construct: host or cells: PC-3 (human prostate cancer cell line)
Description: Receptor affinity was measured using a LigandTracer yellow (Ridgeview Instruments AB, Uppsala, Sweden). For each measurement 3 million PC-3 cells were seeded in 100 mm dishes (Corning St. Oneonta, N.Y., USA) the day before the experiment. Three concentrations for each radioligand were tested (1, 3 and 5 nM) in order to determine the association values. After reaching plateau, the media containing the radioligands were removed, fresh complete media were introduced in the plates and the dissociation phase was measured overnight.

[3] = tested on: PC-3 xenograft bearing mice; test: Biodistribution in PC-3 xenograft bearing mice; details: mouse, in vivo
Description: The biodistribution profile for the four radioligands was determined in female Balb/c nu/nu mice. All the animals were subcutaneously implanted with a suspension of 8 × 10^6 PC-3 cells in the right hind leg. After approximately 3–4 weeks, tumours were developed and animals were randomized in groups of four (with the exception of the Block groups comprising instead 3 animals). For each radioligand 3 groups were used, namely, 4 h, 23 h pi and 4 h Block. Each animal received 2.82 mg of sacubitril (in the form of 12 mg of an Entresto pill suspension) per os and after 30 min, a bolus iv injection of 100–110 kBq of [^177Lu]Lu-peptide (corresponding to 100 pmol total peptide). Animals were euthanized at the predetermined time points and tissues of interest and xenografts were collected, weighted and their activity content was measured in the gamma counter. […] Statistical analysis was performed using GraphPad Prism 10 and a two-way ANOVA with Tuckey’s post hock analysis. Area under curve for kidneys and tumours was estimated by fitting a one-phase decay model and calculating the area under the resulting equation.

[4] = tested on: tumours; details: ref Dumont et al. [2013], cited from earlier work
Description: For [^177Lu]Lu-RM2 (Dumont et al. [2013]), the reported dose per animal was 250 pmol peptide corresponding to 4.63 MBq.

[5] = 5 min pi, ref Nock et al. [2017]; cited from earlier work
Description: (§1) In comparison with [^177Lu]Lu-NeoBomb1 (Dalm et al. [2017]; Nock et al. [2017]), [^177Lu]Lu-AU-SAR-M1 utilizes a different chelator (DOTAGA for AU-SAR-M1 and DOTA for NeoBomb1).

[6] = tested on: PC-3 xenograft bearing mice; details: 4 h pi, ref Dalm et al. [2017], cited from earlier work
Description: as §1

[7] = living PC-3 cells, 1:1 model used (footnote)

T1 sequence (P30550 whole entry): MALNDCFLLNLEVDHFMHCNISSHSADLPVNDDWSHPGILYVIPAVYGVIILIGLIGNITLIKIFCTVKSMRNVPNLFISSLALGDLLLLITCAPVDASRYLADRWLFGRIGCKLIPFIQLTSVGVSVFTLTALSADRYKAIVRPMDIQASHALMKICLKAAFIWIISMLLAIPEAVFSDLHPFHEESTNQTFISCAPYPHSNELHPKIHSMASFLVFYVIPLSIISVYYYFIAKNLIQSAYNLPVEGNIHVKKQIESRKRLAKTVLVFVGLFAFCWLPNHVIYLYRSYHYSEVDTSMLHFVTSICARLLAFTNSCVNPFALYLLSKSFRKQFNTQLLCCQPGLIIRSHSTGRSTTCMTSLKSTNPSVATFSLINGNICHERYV

In the case of `CC(C)C[C@H](NC(=O)C[C@H](O)[C@H](CC(C)C)NC(=O)[C@H](Cc1c[nH]cn1)NC(=O)CN(C)C(=O)[C@@H](NC(=O)[C@H](C)NC(=O)[C@H](Cc1c[nH]c2ccccc12)NC(=O)[C@H](CCC(N)=O)NC(=O)[C@@H](Cc1ccccc1)NC(=O)CN1CCC(NC(=O)COCCOCCNC(=O)CCC(C(=O)O)N2CCN(CC(=O)O)CCN(CC(=O)O)CCN(CC(=O)O)CC2)CC1)C(C)C)C(N)=O` (some centres unmarked) [[^177Lu]Lu-AU-RM26-M2, DOTAGA-PEG2-Pip-[NMe-Gly^11]RM26, metal not drawn], the “AUC Kidneys” value [1] is reported as 56 and the “AUC Tumour” value [1] is reported as 62.

In the case of `CCNC(=O)[C@H](CC(C)C)NC(=O)[C@H](Cc1c[nH]cn1)NC(=O)CN(C)C(=O)[C@@H](NC(=O)[C@H](C)NC(=O)[C@H](Cc1c[nH]c2ccccc12)NC(=O)[C@H](CCC(N)=O)NC(=O)[C@@H](Cc1ccccc1)NC(=O)COCC(=O)Nc1ccc(CNC(=O)CCC(C(=O)O)N2CCN(CC(=O)O)CCN(CC(=O)O)CCN(CC(=O)O)CC2)cc1)C(C)C` (some centres unmarked) [[^177Lu]Lu-AU-SAR-M1, DOTAGA-AMA-DIG-SAR, metal not drawn], the ka1 ([2]; living PC-3 cells, 1, 3 and 5 nM, 1:2 model) is reported as 65700 M⁻¹ s⁻¹, the ka2 ([2]; living PC-3 cells, 1:2 model) is reported as 614000 M⁻¹ s⁻¹ and the kd1 ([2]; living PC-3 cells, 1:2 model) is reported as 1.76 × 10^–6 s^−1. The kd2 ([2]; living PC-3 cells, 1:2 model) was 7.43 × 10^–4 s^−1, the “AUC Kidneys” value [1] was 45 and the “AUC Tumour” value [1] was 242. The “AUC ratio Tumour/Kidneys” value [1] was 5.4 and the “tumour-to-kidney ratio for the estimated AUC, times better than the next candidate” value [3] was 1.4 times.

For `CCNC(=O)[C@H](CC(C)C)NC(=O)[C@H](Cc1c[nH]cn1)NC(=O)CN(C)C(=O)[C@@H](NC(=O)[C@H](C)NC(=O)[C@H](Cc1c[nH]c2ccccc12)NC(=O)[C@H](CCC(N)=O)NC(=O)[C@@H](Cc1ccccc1)NC(=O)COCC(=O)Nc1ccc(CNC(=O)[C@H](CCCNC(=N)N)NC(=O)CCC(C(=O)O)N2CCN(CC(=O)O)CCN(CC(=O)O)CCN(CC(=O)O)CC2)cc1)C(C)C` (some centres unmarked) [[^177Lu]Lu-AU-SAR-M2, DOTAGA-Arg-AMA-DIG-SAR, metal not drawn], the ka1 [2, 7] was 90900 M⁻¹ s⁻¹, the kd1 [2, 7] was 6.44 × 10^–7 s^−1 and the “AUC Kidneys” value [1] was 68. For the same compound, the “AUC Tumour” value [1] was 259, the “AUC ratio Tumour/Kidneys” value [1] was 3.8 and the “Tumour-to-Kidneys AUC ratio, fold higher than [^177Lu]Lu-AU-RM26-M4” value [1] was 1.6 fold. For the same compound, the “Tumour-to-Kidneys AUC ratio, fold higher than [^177Lu]Lu-AU-SAR-M1” value [1] was 1.4 fold.

For “DOTA-4-amino-1-carboxymethyl-piperidine-DPhe-Gln-Trp-Ala-Val-Gly-His-Sta-Leu-NH2 [[^177Lu]Lu-RM2]”, the tumour uptake ([4]; 4 h pi, 250 pmol peptide, 4.63 MBq) is given as 10.97 ± 0.99 %IA/g, the “activity uptake in pancreas” value ([4]; 4 h pi) is given as 0.70 ± 0.12 %IA/g and the “activity remaining in the tumours” value ([4]; 24 h pi relative to 4 h pi) is given as “approximately 50%”.

In the case of “DOTA-AMA-DIG-DPhe-Gln-Trp-Ala-Val-Gly-His-NHCH[(CH2-CH(CH3)2]2 [[^177Lu]Lu-NeoBomb1, Lu-177-based GRPR-antagonist already tested in patients]”, the “intact peptide detected in mice circulation” value [5] is listed as 95%, the tumour values ([6]; PC-3 xenograft bearing mice, 200 pmol – 1 MBq) is listed as 17.9 ± 3.3 %IA/g and the kidneys uptake [6] is listed as 2.5%.

Source: paper PMC12314183, “RM2 and DB15 analogues bearing [^177Lu]Lu-DOTAGA via different linkers, as radiotherapeutics: a head-to-head comparative study” (EJNMMI Radiopharmacy and Chemistry, 2025)
